Laboratory results from patent US10406097B2, “Extract of Arthrobacter agilis for use in particular in cosmetics” (priority 2013, dated 2019).

Tested on: Normal human keratinocytes (NHK)
Experiment: Carbonylation test (OxyELISA) after UV/visible irradiation
Type: cell-based
Conditions: SBE 200 nM; Tocopherol acetate 20 μM; 2 hours contact; 120 kJ/m^2; P-value <0.01
Protocol: By following the same UV/visible irradiation protocol as the one used above for the comet assay, the rate of carbonylation of keratinocytes in the presence of SBE and tocopherol acetate was measured.
• Normal human keratinocytes (NHK) (T6)-10^6 cells/condition • Conditions: • 1% THF solvent control • SBE 200 nM • Tocopherol acetate 20 μM • Each condition is carried out in triplicate. • Contact with KHNs in different experimental conditions for 2 hours. • UVB/UVA/Visible irradiation at 120 kJ/m^2 of the cells placed in PBS by a Suntest CPS+ solar simulator (Atlas Material Testing Technology) at 4° C. Negative controls are maintained at 4° C. for the same duration as the irradiation. • Trypsination of the cells post irradiation. Rinsing of the iced PBS. Elimination of the PBS and immediate freezing of the cell pellets at −80° C. 2—Measurement of the Carbonylation • The proteins are extracted after lysis of the cells and their concentration is measured using the Bradford test. • The proteins are derived by 2,4-dinitrophenylhydrazine (DNPH), which binds to the carbonyl groups. • The carbonylation rate is then measured on ELISA plates (OxyELISA™ Oxidized Protein Quantitation Kit, Millipore) at 450 nm. Results

Compound: CC(=O)Oc1c(C)c(C)c2c(c1C)CCC(C)(CCC[C@H](C)CCC[C@H](C)CCCC(C)C)O2 (stereo partly shown) [tocopherol acetate]
- increase of the rate of carbonylation of keratinocyte proteins after UV/visible irradiation: decreases significantly
